Data: US20170320870A1 (Medical Research Council Technology, priority 2009, published 2017)

Key:
Type in all cases: biochemical
[1] = biological target: each specific kinase (kinase selectivity panel, Table 2) (Homo sapiens, UniProt P27361); assay: Kinase selectivity: percentage inhibition of each specific kinase at 1 μM inhibitor concentration; conditions: ERK1
Description: (§1) Values are expressed as percentage inhibition of the each specific kinase at 1 μM inhibitor concentration.

[2] = biological target: each specific kinase (kinase selectivity panel, Table 2) (Homo sapiens, UniProt Q06187); assay: as above; conditions: BTK
Description: as §1

[3] = biological target: each specific kinase (kinase selectivity panel, Table 2) (Homo sapiens, UniProt P29317); assay: as above; conditions: EPH-A2
Description: as §1

[4] = biological target: each specific kinase (kinase selectivity panel, Table 2) (Homo sapiens, UniProt O75582); assay: as above; conditions: MSK1
Description: as §1

[5] = biological target: each specific kinase (kinase selectivity panel, Table 2) (Homo sapiens, UniProt P80192); assay: as above; conditions: MLK1
Description: as §1

[6] = biological target: each specific kinase (kinase selectivity panel, Table 2) (Homo sapiens, UniProt Q12851); assay: as above; conditions: GCK
Description: as §1

[7] = biological target: each specific kinase (kinase selectivity panel, Table 2) (Homo sapiens, UniProt O00418); assay: as above; conditions: EF2K
Description: as §1

[8] = biological target: each specific kinase (kinase selectivity panel, Table 2) (Homo sapiens, UniProt Q9UHD2); assay: as above; conditions: TBK1
Description: as §1

[9] = biological target: each specific kinase (kinase selectivity panel, Table 2) (Homo sapiens, UniProt P54753); assay: as above; conditions: EPH-B3
Description: as §1

[10] = biological target: each specific kinase (kinase selectivity panel, Table 2) (Homo sapiens, UniProt P68400); assay: as above; conditions: CK2
Description: as §1

[11] = biological target: each specific kinase (kinase selectivity panel, Table 2) (Rattus norvegicus, UniProt Q62868); assay: as above; conditions: ROCK 2
Description: as §1

[12] = biological target: each specific kinase (kinase selectivity panel, Table 2) (Homo sapiens, UniProt P06239); assay: as above; conditions: Lck
Description: as §1

[13] = biological target: each specific kinase (kinase selectivity panel, Table 2) (Homo sapiens, UniProt P17612); assay: as above; conditions: PKA
Description: as §1

[14] = biological target: each specific kinase (kinase selectivity panel, Table 2) (Homo sapiens, UniProt P49841); assay: as above; conditions: GSK3b
Description: as §1

[15] = biological target: each specific kinase (kinase selectivity panel, Table 2) (Homo sapiens, UniProt P53350); assay: as above; conditions: PLK1
Description: as §1

[16] = biological target: each specific kinase (kinase selectivity panel, Table 2) (Homo sapiens, UniProt P23443); assay: as above; conditions: S6K1
Description: as §1

[17] = biological target: each specific kinase (kinase selectivity panel, Table 2) (Homo sapiens, UniProt Q8IW41); assay: as above; conditions: PRAK
Description: as §1

[18] = biological target: each specific kinase (kinase selectivity panel, Table 2) (Homo sapiens, UniProt P04629); assay: as above; conditions: TrkA
Description: as §1

[19] = biological target: each specific kinase (kinase selectivity panel, Table 2) (Homo sapiens, UniProt Q14164); assay: as above; conditions: IKKe
Description: as §1

[20] = biological target: each specific kinase (kinase selectivity panel, Table 2) (Homo sapiens, UniProt Q15746); assay: as above; conditions: SmMLCK
Description: as §1

[21] = biological target: each specific kinase (kinase selectivity panel, Table 2) (Homo sapiens, UniProt Q9P289); assay: as above; conditions: MST4
Description: as §1

[22] = biological target: each specific kinase (kinase selectivity panel, Table 2) (Homo sapiens, UniProt P27448); assay: as above; conditions: MARK3
Description: as §1

[23] = biological target: each specific kinase (kinase selectivity panel, Table 2) (Homo sapiens, UniProt Q02750); assay: as above; conditions: MKK1
Description: as §1

[24] = biological target: each specific kinase (kinase selectivity panel, Table 2) (Homo sapiens, UniProt Q9HBH9); assay: as above; conditions: MNK2
Description: as §1

[25] = biological target: T1, LRRK2 wild type (recombinant human, catalytic domain amino acids 970-2527, GST-tagged) (Homo sapiens, UniProt Q5S007); assay: LRRK2 wild type protein kinase assay ([γ-33P] ATP, peptide substrate […]), IC50; conditions: LRRK2 (variant not given); read-out: Potency score, LRRK2 IC50
T1 construct: The wild type used was recombinant human, catalytic domain (amino acids 970-2527) GST-tagged, expressed in insect cells; GST; purchased Invitrogen Corporation PV4873; host or cells: insect cells
Method in brief: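 Insect-cell-expressed enzyme (~5 nM), no activation, incubated 180 min at ~21 °C in 50 mM Tris-HCl pH 7.5, 0.1 mM EGTA, 1 mM DTT, 10 mM MgCl2 with 100 μM peptide substrate and [γ-33P]ATP. Reaction stopped with orthophosphoric acid, captured on P81 filters and counted; IC50 from 10 concentrations in duplicate.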

Sequence of each specific kinase (kinase selectivity panel, Table 2) (Homo sapiens, UniProt P06239) (P06239 whole entry): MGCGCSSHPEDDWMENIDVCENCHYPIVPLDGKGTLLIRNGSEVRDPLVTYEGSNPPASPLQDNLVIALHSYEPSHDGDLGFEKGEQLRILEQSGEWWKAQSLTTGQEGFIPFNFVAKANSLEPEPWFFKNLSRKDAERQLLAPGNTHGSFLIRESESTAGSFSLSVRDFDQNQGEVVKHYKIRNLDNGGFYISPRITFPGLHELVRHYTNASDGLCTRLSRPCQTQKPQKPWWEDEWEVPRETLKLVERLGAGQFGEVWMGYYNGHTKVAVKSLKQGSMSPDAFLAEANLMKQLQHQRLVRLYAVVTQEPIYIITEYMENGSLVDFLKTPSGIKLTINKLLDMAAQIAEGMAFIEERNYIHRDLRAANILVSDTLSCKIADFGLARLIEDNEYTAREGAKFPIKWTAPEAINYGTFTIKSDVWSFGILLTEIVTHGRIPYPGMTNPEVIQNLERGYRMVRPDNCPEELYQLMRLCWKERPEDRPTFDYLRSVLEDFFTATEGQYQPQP
Sequence of each specific kinase (kinase selectivity panel, Table 2) (Homo sapiens, UniProt Q15746) (Q15746 whole entry): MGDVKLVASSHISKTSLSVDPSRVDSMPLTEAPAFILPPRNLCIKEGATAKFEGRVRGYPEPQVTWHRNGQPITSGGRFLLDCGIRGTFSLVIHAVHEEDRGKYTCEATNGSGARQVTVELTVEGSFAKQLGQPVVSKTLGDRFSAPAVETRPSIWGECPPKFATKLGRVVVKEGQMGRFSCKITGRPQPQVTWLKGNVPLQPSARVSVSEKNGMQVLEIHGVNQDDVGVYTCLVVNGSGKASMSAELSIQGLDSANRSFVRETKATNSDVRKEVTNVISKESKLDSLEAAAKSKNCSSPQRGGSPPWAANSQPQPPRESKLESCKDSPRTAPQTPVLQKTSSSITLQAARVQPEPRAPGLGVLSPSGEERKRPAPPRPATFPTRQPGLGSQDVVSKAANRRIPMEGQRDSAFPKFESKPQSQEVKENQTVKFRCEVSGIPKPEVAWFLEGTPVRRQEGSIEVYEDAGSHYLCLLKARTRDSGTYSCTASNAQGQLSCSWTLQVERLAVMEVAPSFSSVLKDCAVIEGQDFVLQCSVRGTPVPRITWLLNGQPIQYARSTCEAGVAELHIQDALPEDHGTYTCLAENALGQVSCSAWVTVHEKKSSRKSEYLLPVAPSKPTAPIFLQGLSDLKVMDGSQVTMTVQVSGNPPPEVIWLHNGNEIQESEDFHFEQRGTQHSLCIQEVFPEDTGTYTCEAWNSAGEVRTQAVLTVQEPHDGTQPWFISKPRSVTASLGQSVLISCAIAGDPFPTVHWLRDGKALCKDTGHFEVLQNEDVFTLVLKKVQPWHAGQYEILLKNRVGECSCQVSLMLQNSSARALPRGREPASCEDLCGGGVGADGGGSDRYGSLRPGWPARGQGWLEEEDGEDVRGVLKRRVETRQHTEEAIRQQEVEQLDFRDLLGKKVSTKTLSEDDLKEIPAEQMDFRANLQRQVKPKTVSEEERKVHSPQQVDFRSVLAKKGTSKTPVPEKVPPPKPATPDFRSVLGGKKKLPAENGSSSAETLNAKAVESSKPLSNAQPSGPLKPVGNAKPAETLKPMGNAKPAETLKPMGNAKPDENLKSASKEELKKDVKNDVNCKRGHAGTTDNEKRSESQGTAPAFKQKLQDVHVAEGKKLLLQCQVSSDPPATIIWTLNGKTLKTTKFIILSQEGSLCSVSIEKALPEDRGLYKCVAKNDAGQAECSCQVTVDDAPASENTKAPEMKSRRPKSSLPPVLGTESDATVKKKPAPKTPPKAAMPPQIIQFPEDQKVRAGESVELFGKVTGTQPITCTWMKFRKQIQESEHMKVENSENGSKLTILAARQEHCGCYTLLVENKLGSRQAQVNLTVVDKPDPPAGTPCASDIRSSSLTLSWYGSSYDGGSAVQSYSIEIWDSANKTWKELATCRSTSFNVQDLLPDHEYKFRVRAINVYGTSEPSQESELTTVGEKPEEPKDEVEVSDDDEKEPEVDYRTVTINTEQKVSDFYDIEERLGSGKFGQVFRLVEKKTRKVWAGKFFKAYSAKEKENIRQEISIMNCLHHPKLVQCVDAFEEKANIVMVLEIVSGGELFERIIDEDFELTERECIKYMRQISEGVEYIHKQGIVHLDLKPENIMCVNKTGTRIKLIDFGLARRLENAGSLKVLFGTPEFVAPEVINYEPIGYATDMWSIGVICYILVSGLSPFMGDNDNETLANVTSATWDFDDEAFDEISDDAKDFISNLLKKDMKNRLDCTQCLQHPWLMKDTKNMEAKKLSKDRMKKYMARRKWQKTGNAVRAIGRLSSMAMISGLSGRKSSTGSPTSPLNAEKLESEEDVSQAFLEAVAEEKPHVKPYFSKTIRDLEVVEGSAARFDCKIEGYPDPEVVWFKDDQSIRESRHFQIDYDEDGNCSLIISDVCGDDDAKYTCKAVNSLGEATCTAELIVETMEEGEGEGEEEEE
Sequence of each specific kinase (kinase selectivity panel, Table 2) (Homo sapiens, UniProt P80192) (P80192 whole entry): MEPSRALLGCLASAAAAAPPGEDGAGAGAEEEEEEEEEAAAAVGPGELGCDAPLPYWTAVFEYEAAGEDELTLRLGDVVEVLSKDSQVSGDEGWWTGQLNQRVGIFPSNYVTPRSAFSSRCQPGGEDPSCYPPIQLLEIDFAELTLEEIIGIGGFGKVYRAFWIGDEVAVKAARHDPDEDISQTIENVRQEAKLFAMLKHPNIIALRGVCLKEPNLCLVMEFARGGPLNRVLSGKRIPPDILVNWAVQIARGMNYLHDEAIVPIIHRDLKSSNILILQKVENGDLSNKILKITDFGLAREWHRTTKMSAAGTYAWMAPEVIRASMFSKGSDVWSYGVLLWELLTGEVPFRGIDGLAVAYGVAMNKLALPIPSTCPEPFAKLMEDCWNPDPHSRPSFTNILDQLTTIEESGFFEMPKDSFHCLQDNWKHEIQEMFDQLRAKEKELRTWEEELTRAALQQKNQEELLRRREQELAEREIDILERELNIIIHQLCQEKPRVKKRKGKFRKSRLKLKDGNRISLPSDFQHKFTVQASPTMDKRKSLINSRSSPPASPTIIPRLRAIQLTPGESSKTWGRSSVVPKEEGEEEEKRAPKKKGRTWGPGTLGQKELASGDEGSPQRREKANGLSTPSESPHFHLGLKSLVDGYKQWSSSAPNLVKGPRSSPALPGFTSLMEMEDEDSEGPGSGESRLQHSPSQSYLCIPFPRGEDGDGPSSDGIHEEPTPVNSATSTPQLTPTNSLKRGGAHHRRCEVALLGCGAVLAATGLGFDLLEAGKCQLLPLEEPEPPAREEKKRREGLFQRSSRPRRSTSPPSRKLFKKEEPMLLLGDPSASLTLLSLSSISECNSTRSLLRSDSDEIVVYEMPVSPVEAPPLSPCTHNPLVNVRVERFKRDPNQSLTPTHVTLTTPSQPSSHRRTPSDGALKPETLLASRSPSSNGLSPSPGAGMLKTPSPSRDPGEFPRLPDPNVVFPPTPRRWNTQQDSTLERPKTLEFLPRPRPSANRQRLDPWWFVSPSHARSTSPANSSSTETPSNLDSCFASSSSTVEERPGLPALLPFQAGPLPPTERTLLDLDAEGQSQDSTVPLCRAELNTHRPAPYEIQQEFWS
Sequence of each specific kinase (kinase selectivity panel, Table 2) (Homo sapiens, UniProt Q9UHD2) (Q9UHD2 whole entry): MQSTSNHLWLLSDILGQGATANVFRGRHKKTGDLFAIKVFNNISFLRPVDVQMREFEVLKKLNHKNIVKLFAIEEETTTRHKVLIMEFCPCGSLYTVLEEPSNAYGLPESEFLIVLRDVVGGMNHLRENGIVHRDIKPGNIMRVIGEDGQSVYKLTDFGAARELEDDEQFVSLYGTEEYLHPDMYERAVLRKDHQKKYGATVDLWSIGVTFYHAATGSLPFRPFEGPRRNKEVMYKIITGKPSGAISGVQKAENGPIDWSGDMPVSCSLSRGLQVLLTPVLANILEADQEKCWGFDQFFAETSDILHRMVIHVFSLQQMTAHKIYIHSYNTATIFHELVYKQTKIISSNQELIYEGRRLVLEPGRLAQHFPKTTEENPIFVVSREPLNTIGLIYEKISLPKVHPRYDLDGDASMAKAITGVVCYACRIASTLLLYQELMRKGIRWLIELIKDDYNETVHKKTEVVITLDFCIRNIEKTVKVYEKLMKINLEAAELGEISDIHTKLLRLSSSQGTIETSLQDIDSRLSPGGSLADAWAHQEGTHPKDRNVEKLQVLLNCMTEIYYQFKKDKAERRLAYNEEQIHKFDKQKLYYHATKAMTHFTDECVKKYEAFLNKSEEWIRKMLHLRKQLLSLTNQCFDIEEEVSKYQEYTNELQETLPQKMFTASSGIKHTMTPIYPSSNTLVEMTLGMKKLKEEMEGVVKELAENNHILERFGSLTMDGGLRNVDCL
Sequence of each specific kinase (kinase selectivity panel, Table 2) (Homo sapiens, UniProt P49841) (P49841 whole entry): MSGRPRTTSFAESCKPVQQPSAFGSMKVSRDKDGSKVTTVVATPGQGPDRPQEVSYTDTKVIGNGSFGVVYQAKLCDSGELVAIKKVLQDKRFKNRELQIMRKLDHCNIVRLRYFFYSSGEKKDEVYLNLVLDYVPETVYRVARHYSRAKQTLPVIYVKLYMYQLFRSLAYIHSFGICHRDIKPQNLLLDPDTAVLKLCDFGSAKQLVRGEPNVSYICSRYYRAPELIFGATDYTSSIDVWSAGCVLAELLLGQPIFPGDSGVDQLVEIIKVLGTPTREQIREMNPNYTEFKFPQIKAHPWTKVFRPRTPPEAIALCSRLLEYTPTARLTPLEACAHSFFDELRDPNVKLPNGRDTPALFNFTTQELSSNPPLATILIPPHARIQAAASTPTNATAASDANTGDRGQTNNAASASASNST
Sequence of each specific kinase (kinase selectivity panel, Table 2) (Homo sapiens, UniProt P68400) (P68400 whole entry): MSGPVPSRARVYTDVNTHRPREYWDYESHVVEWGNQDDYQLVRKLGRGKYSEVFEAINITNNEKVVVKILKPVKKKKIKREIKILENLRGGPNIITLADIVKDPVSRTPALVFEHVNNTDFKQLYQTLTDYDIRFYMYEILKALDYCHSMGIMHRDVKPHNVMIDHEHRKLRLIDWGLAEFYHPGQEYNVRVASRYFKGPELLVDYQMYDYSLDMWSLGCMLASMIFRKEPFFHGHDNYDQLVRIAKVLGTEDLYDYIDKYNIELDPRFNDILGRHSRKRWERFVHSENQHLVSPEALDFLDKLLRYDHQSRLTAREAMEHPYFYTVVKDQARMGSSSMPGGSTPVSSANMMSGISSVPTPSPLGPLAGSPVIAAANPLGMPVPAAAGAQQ

| Structure (SMILES) | percentage inhibition of ERK1 [1] | percentage inhibition of BTK [2] | percentage inhibition of EPH-A2 [3] | percentage inhibition of MSK1 [4] | percentage inhibition of MLK1 [5] | percentage inhibition of GCK [6] | percentage inhibition of EF2K [7] | percentage inhibition of TBK1 [8] | percentage inhibition of EPH-B3 [9] | percentage inhibition of CK2 [10] | percentage inhibition of ROCK 2 [11] | percentage inhibition of Lck [12] | percentage inhibition of PKA [13] | percentage inhibition of GSK3b [14] | percentage inhibition of PLK1 [15] | percentage inhibition of S6K1 [16] | percentage inhibition of PRAK [17] | percentage inhibition of TrkA [18] | percentage inhibition of IKKe [19] | percentage inhibition of SmMLCK [20] | also measured |
| --- | --- | --- | --- | --- | --- | --- | --- | --- | --- | --- | --- | --- | --- | --- | --- | --- | --- | --- | --- | --- | --- |
| CC[C@H](C)Oc1nccc2[nH]nc(C)c12 [Example 121, 4-((S)-sec-Butoxy)-3-methyl-1H-pyrazolo[4,3-c]pyridine] | 1 percentage | 0 percentage | 8 percentage | 48 percentage | 19 percentage | 68 percentage | 0 percentage | 6 percentage | 6 percentage | 0 percentage | 57 percentage | 0 percentage | 26 percentage | 25 percentage | 19 percentage | 0 percentage | 0 percentage | 26 percentage | 19 percentage | 22 percentage | percentage inhibition of MST4 [21]: 23 percentage; percentage inhibition of MARK3 [22]: 12 percentage; percentage inhibition of MKK1 [23]: 47 percentage; percentage inhibition of MNK2 [24]: 7 percentage; IC50 [25]: < 100 nM |
| O=C(CCc1n[nH]c2ccnc(NC3CCCCC3)c12)N1CCC[C@H](c2ccccc2)C1 [Example 172, 3-(4-Cyclohexylamino-1H-pyrazolo[4,3-c]pyridin-3-yl)-1-((R)-3-phenyl-piperidin-1-yl)-propan-1-one] | 0 percentage | 12 percentage | 0 percentage | 1 percentage | 13 percentage | 19 percentage | 0 percentage | 14 percentage | 3 percentage | 3 percentage | 7 percentage | 25 percentage | 5 percentage | 5 percentage | 3 percentage | 14 percentage | 0 percentage | 5 percentage | 17 percentage | 18 percentage | percentage inhibition of MST4 [21]: 10 percentage; percentage inhibition of MARK3 [22]: 18 percentage; percentage inhibition of MKK1 [23]: 17 percentage; percentage inhibition of MNK2 [24]: 0 percentage; IC50 [25]: < 100 nM |
